Assay results from the NIST ThermoML archive (doi:10.1016/j.jct.2004.07.024).
Numbers after ± are expanded uncertainties.

Columns and labels:
[1] = 298.15 K; 101.33 kPa; Liquid
[2] = refractive index (Na D-line) (dimensionless); settings: 293.15 K; 101.33 kPa; Liquid; Standard Abbe refractometry

mass density [1] [kg/m3]	refractive index [2]	SMILES
873.56 ± 0.35	1.5009 ± 0.0004	c1ccccc1 [benzene]
862.44 ± 0.55	1.4962 ± 0.0005	CCc1ccccc1 [ethylbenzene]
901.51 ± 0.54	1.546 ± 0.0005	C=Cc1ccccc1 [styrene]

SMILES	mass density [1] [kg/m3]	refractive index [2]
C[S+](C)[O-] [dimethyl sulfoxide]	1095.62 ± 0.32	1.4785 ± 0.0004
Cc1ccccc1 [toluene]	862.14 ± 0.94	1.4965 ± 0.0006
